# Reference: US9789187B2, “Stable pharmaceutical composition for atherosclerosis” (Cadila Pharmaceuticals Limited, priority 2009, dated 2017)
# Where two headings read alike, the source gives them in different places.
# How the values were obtained:
# [1] = human, in vivo
# [2] = cited from earlier work
# Urinary thromboxane = Urinary thromboxane levels (antiplatelet activity); format: in vivo, human; settings: group taking aspirin vs group taking MCP
# [3] = Randomized controlled study of heart rate over 24 hrs in normal healthy volunteers; format: in vivo; settings: seen at 4.5 hrs; 16 in each group; heart rate measured for 24 hrs
# Procedure: All received a pill a day. […] The heart rate was measured for 24 hrs.
# [4] = Cross over randomized two period pharmacokinetic study, single MCP (test) vs market single ingredient pill (reference)
# [5] = Clinical trial for efficacy: reduction in sitting systolic and diastolic blood pressure; format: in vivo, human; parameters: Effect on Systolic B.P., Hypertensive / Effect on Systolic B.P., Non hypertensive / Effect on Diastolic B.P., Hypertensive / Effect on Diastolic B.P., Non hypertensive / Effect on Systolic B.P., Diabetics / Effect on Systolic B.P., Non diabetics / Effect on Diastolic B.P., Diabetics / Effect on Diastolic B.P., Non diabetics: unit not given here
# Procedure: Reduction in sitting diastolic and sitting systolic blood pressure was measured in a cohort of population who received multi-component pill (n=392) or a pill containing three antihypertensive drugs (n=196).
# [6] = Randomized double blind controlled study of change in lipid profile (3 months); format: in vivo, human; settings: simvastatin 20 mg daily for 3 months; 198 subjects alone, 406 as multi-component composition
# From the text: The multi-component pharmaceutical composition included The change in lipid profile as compared to baseline is provided in a table below.
# [7] = analyte of the table title after market single ingredient pill (reference)
# [8] = analyte of the table title after single MCP (test)
# [9] = multi-component pill n=392, hydrochlorothiazide n=199, two drugs n=207,205,209, three drugs n=196
# [10] = MCP (test) / single ingredient pill (reference)
smiles,measurement,setting,value
CCOC(=O)[C@H](CCc1ccccc1)N[C@@H](C)C(=O)N1[C@H](C(=O)O)C[C@@H]2CCC[C@@H]21 [Ramipril],Cough (serious adverse leading to discontinuation),"human, in vivo, 3 months",1.4%
same,"Ln AUC0-t, Ratio (T/R) * 100",[1],109.98
same,"Ln AUCo-∞, Ratio (T/R) * 100",[1],109.09
same,"Ln Cmax, Ratio (T/R) * 100",[1],118.51
COC(=O)C1=C(C)NC(C)=C(C(=O)OCC(C)C)C1c1ccccc1[N+](=O)[O-] (centres unmarked) [Nisoldipine],increase of AUC of telmisartan,[2]; co-administered drug raises telmisartan AUC,132%
"CC(=O)Oc1ccccc1C(=O)O [Aspirin, acetylsalicylic acid]","change in SGPT by two fold, S. Potassium above 5.5 and increase in serum creatinine by 50%","aspirin 100 mg (n=172) compared with MCP (n=334), daily for three months",marginally higher
same,All reported Adverse events,"human, in vivo, 3 months",163
same,Gastritis/dyspepsia (serious adverse leading to discontinuation),"human, in vivo, 3 months",1.4%
same,Urinary thromboxane levels,Urinary thromboxane,identical
CC(C)NCC(O)COc1ccc(CC(N)=O)cc1 (centres unmarked) [Atenolol],Peak decrease in heart rate,[3],5.38
NS(=O)(=O)c1cc2c(cc1Cl)NCNS2(=O)=O [Hydrochlorothiazide],Dizziness and hypotension (serious adverse leading to discontinuation),"Thiazide n=199, MCP n=392",3.3%
same,All reported Adverse events,"three month trial, groups of 205 (aspirin, thiazide, simvastatin alone), 412 (multi-component pill)",161
same,"Ln AUC0-t, Ref. Geo LSM",[4]; [7],621.884 ng·h/mL
same,"Ln AUCo-∞, Ref. Geo LSM",[4]; [7],668.583 ng·h/mL
same,"Ln Cmax, Ref. Geo LSM",[4]; [7],92.388 ng/mL
same,"Ln AUC0-t, Test Geo LSM",[4]; [8],579.174 ng·h/mL
same,"Ln AUCo-∞, Test Geo LSM",[4]; [8],619.693 ng·h/mL
same,"Ln Cmax, Test Geo LSM",[4]; [8],93.437 ng/mL
same,"Effect on Diastolic B.P., Diabetics",[5]; diabetics,1.5
same,"Effect on Systolic B.P., Diabetics",[5]; diabetics,3.4
same,"Effect on Diastolic B.P., Hypertensive",[5]; hypertensives,2.5
same,"Effect on Systolic B.P., Hypertensive",[5]; hypertensives,3.0
same,Mean change in sitting diastolic blood pressure,[5]; [9],1.2 mm of Hg
same,Mean change in sitting systolic blood pressure,[5]; [9],2.2 mm of Hg
same,"Effect on Diastolic B.P., Non diabetics",[5]; nondiabetics,1.1
same,"Effect on Systolic B.P., Non diabetics",[5]; nondiabetics,1.6
same,"Effect on Diastolic B.P., Non hypertensive",[5]; nonhypertensives,0.5
same,"Effect on Systolic B.P., Non hypertensive",[5]; nonhypertensives,1.8
CCC(C)(C)C(=O)O[C@H]1C[C@@H](C)C=C2C=C[C@H](C)[C@H](CC[C@@H]3C[C@@H](O)CC(=O)O3)[C@H]21 [Simvastatin],change in Apo B compared to baseline,[6],20.37%
same,change in LDL compared to baseline,[6],26.83%
same,change in Total Cholesterol compared to baseline,[6],17.95%
O=C(O)c1ccccc1O [Salicylic Acid],"Ln AUC0-t, Ratio (T/R) * 100",[4]; [10],117.54
same,"Ln AUCo-∞, Ratio (T/R) * 100",[4]; [10],117.82
same,"Ln Cmax, Ratio (T/R) * 100",[4]; [10],99.48
COc1ccc([C@@H]2Sc3ccccc3N(CCN(C)C)C(=O)[C@@H]2OC(C)=O)cc1 [Diltiazem],increase of AUC of simvastatin (in words),[2]; co-administered drug raises simvastatin AUC,two fold
C[C@H](N[C@@H](CCc1ccccc1)C(=O)O)C(=O)N1[C@H](C(=O)O)C[C@@H]2CCC[C@@H]21 [Ramiprilat],"Ln AUC0-t, Ratio (T/R) * 100",[1],105.31
same,"Ln AUCo-∞, Ratio (T/R) * 100",[1],105.93
same,"Ln Cmax, Ratio (T/R) * 100",[1],117.50
